In US20090137662A1, “SYNERGY OF DOPAMINE D2 AND ADENOSINE A2 RECEPTORS ACTIVATES PKA SIGNALING VIA BETA/GAMMA DIMERS” (The Regents of the University of California, priority 2002, published 2009):

Experiments:
[1] = test system: PKA subunits (RIα, RIIα, RIβ, Cα, Cβ, Cγ); experiment: Immunocytochemical localization of PKA subunits in neutrophils; type: cell-based, human
Source text: Methods 5:249-252 (1974). […] This step removed contaminating platelets from the lymphocyte fraction. […] Images were further analyzed using NIH Image.

ε-PKC [2] = type: cell-based
Experimental: NG 108-15 or CHO cells were pre-incubated in the presence or absence of the indicated inhibitor for 30 min. (except for GF which was pre-incubated for 1 hour), then further incubated in the absence or presence of 200 mM ethanol for 30 min.

[3] = test system: CREB (GAL4-CREB fusion, luciferase reporter); experiment: GAL4-CREB / GAL4-luciferase reporter in NG108-15 cells; type: cell-based; conditions: 20 μM Rp-cAMPS 2 h, 5 μM KN-62 or 50 nM GF 30 min pretreatment, then ethanol 14 hours
Experimental: Cells are cultured as described in Dohrman et al., Proc Natl Acad Sci USA (1996) 93:10217-10221, and are transfected using Effectene (Qiagene) as described by the manufacturers. […] Luciferase activity is measured using Luciferase Assay System (Promega) and normalized to β-galactosidase activity.
NG108-15 cells are co-transfected with a GAL4-CREB fusion construct and with a second construct containing the DNA binding site of GAL4 fused to luciferase as a reporter gene. […] The ethanol-induced increase in luciferase activity induced was inhibited by Rp-cAMPS but not by the CaMK and PKC inhibitors KN-62 and GF, respectively (FIGS. 15 and 16B).

[4] = test system: CRE-regulated luciferase expression; experiment: CRE-luciferase reporter in NG108-15 cells; type: cell-based; conditions: NG108-15 cells; 200 mM ethanol co-incubated with Rp-cAMPS 20 μM
Experimental: Luciferase is used as a reporter gene in a transient expression system to identify substances that alter the effects of ethanol on CRE-regulated gene expression. Cells are cultured as described in Dohrman et al., Proc Natl Acad Sci USA (1996) 93:10217-10221, and are transfected using Effectene (Qiagene) as described by the manufacturers. Twenty-four hours after transfection the cells are treated with 200 mM ethanol for 30 min. to 36 hr. Luciferase activity is measured using Luciferase Assay System (Promega) and normalized to β-galactosidase activity.
(§1) NG108-15 cells were co-transfected with a fusion construct containing the cAMP response element (CRE) fused to luciferase as a reporter gene (Stratagene).
Since the ERK/MAPK pathway may regulate CREB phosphorylation and CRE-mediated gene expression, NG108-15 cells having the luciferase construct were co-incubated with 200 mM ethanol and a MEK inhibitor (PD98059 (2 nM, Calbiochem, San Diego, Calif.) or U0126 (1 μM, Calbiochem, San Diego, Calif.)) or a dominant negative MEK construct (DN-MEK, Dr. R. Seger) in which Lys-97 was replaced by alanine.
as §1

ε-PKC [5] = experiment: Translocation of ε-PKC in NG108-15 and CHO cells expressing the applicable receptor; type: cell-based
Source text: (§2) To determine whether addictive drugs other than ethanol would cause translocation of some proteins, we examine the effects of various receptor agonists and antagonists on ε-PKC δ-PKC or PKA Cα translocation in NG108-15 and CHO cells expressing the applicable receptor. […] Adenosine is also implicated in some behavioral effects of ethanol.
(§3) The mechanisms underlying ethanol- and dopamine-mediated translocation of ε-PKC and δ-PKC were studied by altering the activity of various molecules that might be in the pathways leading to translocation.

δ-PKC = experiment: Translocation of δ-PKC in NG108-15 and CHO cells expressing the applicable receptor; type: cell-based
Source text: as §2, §3

[6] = test system: CRE-mediated gene expression; experiment: CRE-luciferase reporter assay in NG108-15/D2 cells; conditions: for effect of agent alone on luciferase activity / gene expression: NG108-15/D2 cells, spiperone, Rp-cAMPS or PTX alone
Experimental: Cells were transiently transfected with a CRE-luciferase reporter construct to measure gene expression via endogenous CRE-binding protein (CREB).
NG108-15/D2 cells were plated at 1×10^6 cells/100 mm plate, grown in defined medium for 3 days, and then transfected with 10 μg of CRE-luciferase construct using the LipofectAMINE reagent (GIBCOL) as recommended by the manufacturer. Cells were cultured for 24 h post transfection before being seeded into 12-well plates. […] Cells were then washed with PBS and cultured for a total of 5 h. Cell extracts were prepared and luciferase activity measured with a luciferase assay system (Promega, Madison, Wis.), using a Rosys Anthos Lucy2 microplate luminometer (Anthos Labtec Instruments, Austria). Results are expressed as percent increase over control. Data represent three or more separate experiments from triplet wells. Luciferase activities were normalized for transfection efficiency determined in cells transfected in parallel with pCMVβgalactosidase. β-galactosidase activity was measured using a kit from Strategene (La Jolla, Calif.).

PKA Cα [7] = experiment: PKA Cα translocation in primary cultures of hippocampal neurons; conditions: for effect on NPA-induced PKA Cα translocation / effect of agent alone on PKA Cα localization: primary hippocampal neurons; for effect on NPA-induced PKA Cα translocation: 50 nM NPA, spiperone 10 μM, DPCPX 100 nM, DMPX 10 μM 30 min, Rp-cAMPS 20 μM 1.5 hours, PTX 50 ng/ml or Ad5QEHA overnight; for effect of agent alone on PKA Cα localization: data not shown
PKA Cα [8] = type: cell-based
Source text: as §2

CREB phosphorylation = CREB phosphorylation measured with antibody specific for phosphorylated CREB; type: cell-based
GFP-Cα = type: cell-based
PKA Cα [9] = experiment: PKA Cα translocation in NG108-15/D2 cells (immunocytochemistry, cell fractionation/western)
[10] = 10 μM spiperone or 10 μM BW 1434 + 200 mM ethanol

C=C[C@@]1(C)CC(=O)[C@]2(O)[C@@]3(C)[C@@H](O)CCC(C)(C)[C@@H]3[C@H](O)[C@H](OC(C)=O)[C@@]2(C)O1 [forskolin]
effect on localization of the catalytic subunits of PKA (Cα, Cβ, Cγ) ([1]; neutrophils from non-alcoholics, 200 mM ethanol or 100 nM forskolin): no effect
effect on the localization of RIIα ([1]; neutrophils, ethanol or forskolin): no effect

Nc1ncnc2c1ncn2[C@@H]1O[C@@H]2CO[P@@](O)(=S)O[C@H]2[C@H]1O [Rp-cAMPS]
Predominant ε-PKC Localization (ethanol + inhibitor) (ε-PKC [2]): Perinucleus
effect on the ethanol-induced increase in luciferase activity (GAL4-CREB / GAL4-luciferase) [3]: inhibited
effect on early (4 h) and late (14 h) phases of ethanol-induced increases in luciferase expression [4]: completely inhibited both the early and late phases
effect on NPA-induced translocation of ε-PKC (ε-PKC [5]): blocked
effect on ethanol-induced translocation of ε-PKC (ε-PKC [5]): blocked
effect on NPA-induced translocation of δ-PKC (δ-PKC): did not affect
effect on ethanol-induced translocation of δ-PKC (δ-PKC): did not affect
effect of agent alone on luciferase activity / gene expression [6]: without effect
effect on NPA-induced PKA Cα translocation (PKA Cα [7]): prevent
effect of agent alone on PKA Cα localization (PKA Cα [7]): no effect

O=C(CCCN1CCC2(CC1)C(=O)NCN2c1ccccc1)c1ccc(F)cc1 [spiperone]
effect on NPA-induced translocation of ε-PKC (ε-PKC [5]): blocked
effect on ethanol-induced translocation of ε-PKC (ε-PKC [5]): no effect
Predominant Localization of ε-PKC (antagonist + NPA) (ε-PKC [5]; 10 μM spiperone + 50 nM NPA): Perinucleus
Predominant Localization of ε-PKC (antagonist + ethanol) (ε-PKC [5]; [10]): Cytoplasm
effect on NPA-induced translocation of δ-PKC (δ-PKC): blocked
effect on ethanol-induced translocation of δ-PKC (δ-PKC): no effect
Predominant Localization of δ-PKC (antagonist + NPA) (δ-PKC; 10 μM spiperone + 50 nM NPA): Golgi
Predominant Localization of δ-PKC (antagonist + ethanol) (δ-PKC; [10]): Perinucleus &
effect on NPA-induced translocation of PKA Cα (PKA Cα [8]): blocked
effect on ethanol-induced translocation of PKA Cα (PKA Cα [8]): no effect
Predominant Localization of PKA Cα (antagonist + NPA) (PKA Cα [8]; 10 μM spiperone + 50 nM NPA): Golgi
Predominant Localization of PKA Cα (antagonist + ethanol) (PKA Cα [8]; 10 μM spiperone + 200 mM ethanol): Nucleus &
effect of agent alone on luciferase activity / gene expression [6]: without effect
effect on NPA-induced PKA Cα translocation (PKA Cα [7]): blocks
effect of agent alone on PKA Cα localization (PKA Cα [7]): no effect

CCCN1CCc2cccc3c2[C@H]1Cc1ccc(O)c(O)c1-3 [NPA, R(−)-10,11-dihydroxy-N-n-propylnorapomorphine]
Predominant Localization of ε-PKC (agent alone) (ε-PKC [5]): Cytoplasm
Predominant Localization of δ-PKC (agent alone) (δ-PKC): Perinucleus &
Translocation of δ PKC and δ PKC, agent alone (δ-PKC): neither agent alone caused translocation
Translocation of δ PKC and δ PKC, co-incubation of NPA and ethanol (δ-PKC): induced
Predominant Localization of PKA Cα (agent alone) (PKA Cα [8]): Nucleus &
translocation of PKA-Cα, agent alone (PKA Cα [8]): did not cause any perceptible translocation
translocation of PKA-Cα, co-incubation of ethanol and NPA (PKA Cα [8]): maximal translocation
levels of CREB phosphorylation, co-incubation of ethanol and NPA (CREB phosphorylation): synergistic interactions
Subcellular localization of GFP-Cα (GFP-Cα): Nucleus
cells showing the stated localization of GFP-Cα (GFP-Cα): [>50% cells]
CRE-mediated luciferase activity, subthreshold NPA and ethanol together [6]: striking synergistic increase
luciferase activity (CRE-luciferase) [6]: increases luciferase activity to the same extent as forskolin
PKA Cα localization after agonist or ethanol (PKA Cα [7]): PKA Cα translocation to the cytoplasm, neurites and nucleus
PKA Cα translocation, subthreshold NPA and ethanol together (PKA Cα [7]): Synergy of PKA Cα translocation occurs
PKA Cα in subcellular fractions (Western blot) (PKA Cα [9]): translocation of PKA Cα from the membrane fraction to the nucleus and cytoplasm
PKA Cα localization after agonist or ethanol (immunostaining) (PKA Cα [9]): translocation of PKA Cα from the Golgi into the cytoplasm and nucleus
PKA Cα translocation, subthreshold NPA and ethanol together (PKA Cα [9]): striking synergistic increase
PKA translocation at subthreshold concentration, agent alone (PKA Cα [9]): did not cause PKA translocation
time at which NPA-induced PKA Cα translocation reaches a maximum (PKA Cα [9]): 10 min
Km (PKA Cα [9]; read-out: Km of NPA-induced PKA Cα translocation (function of NPA concentration)): 1.6 nM
